Experimental data from US20250090501A1, “METHODS OF TREATING GUT MOTILITY DISORDERS” (THE REGENTS OF THE UNIVERSITY OF CALIFORNIA, priority 2022, published 2025).

Tests used:
EGFRs = settings: cited from earlier work
[1] = test system: hESC-derived 2D ENS cultures (NOS1+ cells); assay: High-throughput screening to identify compounds that enrich NO neurons; type: cell-based, human; design: dose or concentration left out as unconfirmed; settings: 1694 inhibitors, treated D15-D20, read at day 40
Protocol: Day 15 H9 hESC-derived enteric crestospheres were dissociated into single cells (accutase, Stemcell Technologies, 07920, 30 min, 37° C.), resuspended in ENC medium and were transferred into 384-well plates. Plates were incubated for 2 hours for cells to attach. Using a pin tool, drugs from a library of 1694 inhibitors (SelleckChem, USA) were added to wells at the final concentration of […] and plates were incubated with drugs until D20, when media were changed to ENC with no drugs. At day 40, cells were fixed, stained for NOS1 and imaged using InCellAnalyzer 2000 (GE Healthcare, USA). Hits were selected based on the fold increase of the percentage of NOS1^+ cells relative to the wells treated with vehicle (DMSO).
(§1) To identify compounds that induce NO neuron differentiation, enteric crestospheres were treated with 1694 compounds in the Selleck inhibitor Library™ and 12 hit compounds that increased the proportion of NOS1^+ neurons by at least eight folds were identified (FIG. 7A and FIG. 8A-B). […] After clustering the predicted protein targets, common patterns emerged for a subset of compounds.

PDGFRs = settings: cited from earlier work
VEGFRs = settings: cited from earlier work
[2] = test system: stage 1 enteric ganglioids; assay: snRNA-seq comparison of PP121 treated vs control enteric ganglioids; type: cell-based, human; settings: snRNA-seq sub-clustering
Protocol: All tubes and pipet tips used for cell harvesting were pre-treated with 1% BSA in 1×PBS. Cells were dissociated in Accutase (Stem Cell) at 37° C., in 10 min increments, with end-to-end rotation, until single cell suspension was obtained. The cells were washed in Cell Staining Buffer (Biolegend) and stained with TotalSeq HTO antibodies for 30 min on ice. The cells were washed twice in Cell Staining Buffer and filtered through a 40 μm pipette tip strainer (BelArt). […] The libraries were sequenced on Illumina NovaSeq sequencer in the Center for Advanced Technologies (UCSF). The cell feature matrices were extracted using kallisto/bustools, and demultiplexed using seurat.
To compare the gene expression of control and PP121 treated cell types, neuronal subtypes and NO neuron subtypes, a subset dataset of each cell type and subtype annotation was first created. For each subset, the non-imputed average expression of all genes was then calculated for the control and PP121 treated cells using the “AverageExpression” function and natural log transformed for plotting. R2 values comparing the control and PP121 natural log expression values were calculated from linear modeling using the “y˜x” formula.
To compare PP121 treated and untreated stage 1 enteric ganglioids in single cell resolution, snRNA-seq was performed, and both datasets combined.

[3] = test system: stage 1 NOS1::GFP enteric ganglioids; assay: NO neuron induction in stage 1 enteric ganglioids (flow cytometry); type: cell-based, human; settings: for NO neuron induction / NO neuron proportions in response to RTK ligands: stage 1 enteric ganglioids
Protocol: List of antibodies and working dilutions is not shown.
as §1
To determine the mechanism by which PP121 induced NO neuron enrichment in ganglioids, a combination of pharmacological and genetic approaches was used. […] The crestosphere snRNA-seq analysis confirmed the expression of PDGFRA, PDGFRB, ERBB2, and ERBB3 while the mRNA for VEGFRs were not detectable (FIG. 7L). The induction efficiency of NO neurons was evaluated in response to PDGF (PDGFR agonist), sunitinib (PDGFR and VEGFR antagonist), NRG1 (ERBBs agonist), and sapitinib (ERBBs antagonist) (FIG. 7M). […] To genetically confirm the role of PDGFR signaling in NO neuron induction, CRISPR-Cas9 was used to knock-out PDGFRA and PDGFRB in the enteric crestospheres and the percentage of NO neurons in stage 1 ganglioids was analyzed. NO neurons were […] in both PDGFRA and PDGFRB knock-out cultures further confirming the PP121 mechanism of action (FIG. 7O-P).

mouse colon = assay: Ex vivo colonic motility assay (organ bath, GIMM); settings: for CMMC intervals relative to the untreated condition: first experiment, five consecutive 10-min acquisitions, interval at 75th percentile
Protocol: Preparation of solutions: Krebs buffer [NaCl (117 mM), KCl (4.7 mM), NaH2PO4 (1.2 mM), MgCl2 (1.5 mM), CaCl2·2H2O (2.5 mM), NaHCO3 (25 mM), Glucose (11 mM), pH 7.4] was placed in a 37° C. water bath and aerated with 95% 02 and 5% CO2 (carbogen) gas mixture for at least 30 minutes prior to experiment onset. “Drug” treatment solutions were freshly prepared by adding the drug compound into Krebs buffer before starting data acquisition. The solution with NOS1 inhibitor was prepared by adding N omega-nitro-L-arginine methyl ester hydrochloride (L-NAME) to the drug solutions making “Drug+L-NAME”.
Tissue dissection: For each experimental replicate, a pair of 8-week-old wild type C57BL6 mice (male) were placed in a sealed chamber and euthanized using CO2 asphyxiation followed by cervical dislocation. The lower GI tract (cecum and colon) was removed and immediately transferred to 37° C. carbogenated Krebs buffer, with the fecal matter still inside. Adipose tissue and mesentery were removed before placing the colons in the organ bath reservoir of gastrointestinal motility monitor (GIMM) apparatus.
Experimental set-up and procedure: GIMM was designed based on a previously reported model (Swaminathan et al., 2016). The organ reservoir of GIMM has two-chambers for recording two specimens simultaneously. It is connected to working solutions kept at 37° C. via a 4-channel peristaltic pump (WPI, PERIPRO-4LS). Lower GI tract was harvested and transferred to the organ bath with the Krebs buffer was flowing through. The cecum was pinned down at the proximal tip and the distal end of the colon was pinned through the serosa/mesentery. Five 10-min (for the first experiments) or sequential 6-min (for the sequential drug treatment in the presence and absence of L-NAME) videos were recorded using the IC capture software (Imaging Source) with a high resolution monochromatic firewire industrial camera (Imaging Source®, DMK41AF02) connected to a ⅔″ 16 mm f/1.4 C-Mount Fixed Focal Lens (Fujinon HF16SA1). While tissue in the control chamber was only exposed to Krebs solution, the order of solutions in the experimental chamber was: Krebs, drug compound, Krebs (6 min each), L-NAME (2 min), L-NAME in the presence of a drug compound (6 min) and Krebs (6 min). The chambers were cleaned after each acquisition.
Data and statistical analysis: VolumetryG9a was used to generate the spatiotemporal map (STM) of each acquisition (Spear et al., 2018). Slow waves (SW) and colonic migrating motor complexes (CMMC) data were generated from STMs. Statistical analyses were performed using PRISM.
For selected compounds, a more comprehensive and integrated target analysis was performed by combining reported experimental data (Binding DB) and computational methods (SEA, Carlsbad, Dinies, Swisstarget, Superdrug, Pubchem Bioassays, FIG. 2G). The effects of these compounds was tested on colonic motility in organ bath assays (FIG. 2H). In these assays, resected segments of mouse colon were maintained in a physiologic buffer to study motility patterns using video recording. In the first experiment the effect of all selected drug candidates was tested on mouse colonic motility, ex vivo (FIG. 2I). In each experiment, an untreated control and a drug-treated colon sample were tested side by side during five consecutive 10-min acquisitions. For each acquisition, instead of analyzing fecal outputs, which are generally variable, more sophisticated contraction analysis was performed by generating spatiotemporal maps from video data based on the changes in the colonic diameter over time, and used to calculate the rate of colonic migrating motor complexes (CMMC) and slow waves (SW).

[4] = test system: stage 1 enteric ganglioids; settings: MEA
[5] = test system: stage 2 enteric ganglioid; settings: flow cytometry, stage 2 enteric ganglioids
[6] = 6-min treatment, all five replicates

Question: For Nc1ncnc2c1c(-c1cnc3[nH]ccc3c1)nn2C1CCCC1 [PP121], which “inhibitory activity on EGFRs” value (EGFRs) is on record?
Answer: Its value is “known inhibitory activity”.

Question: And the “fold increase of the percentage of NOS1+ cells relative to vehicle (DMSO)” value [1]?
Answer: The value was “highest % NOS1^+ fold increase in this subset of compounds”.

Question: And the “inhibitory activity on PDGFRs” value (PDGFRs)?
Answer: Its value is “known inhibitory activity”.

Question: What about the “inhibitory activity on VEGFRs” value (VEGFRs) of the same compound?
Answer: Its value is “known inhibitory activity”.

Question: What about the “abundance of neuronal subtypes” value [2] of the same compound?
Answer: Its value is “enriched cultures for neuronal subtypes EN D and H”.

Question: What about the “NO neuron induction efficiency by treatment window” value ([3]; 2 μM PP121, five days at various time points, GFP signal) of the same compound?
Answer: The value was “highest induction efficiency for cells treated during day 15-20”.

Question: What about the “NO neuron induction efficiency, concentration dependence” value ([3]; different PP121 concentrations at D15-D20, flow cytometry) of the same compound?
Answer: The value was “dose-dependent effect”.

Question: Which “CMMC intervals relative to the untreated condition” value (mouse colon) does the source give for O=C1CCC[C@@H]2[C@H]3CCCN4CCC[C@@H](CN12)[C@@H]34 [matrine] here?
Answer: The value was “promising effects on lowering CMMC intervals”.

Question: Which “NO neuron induction / NO neuron proportions in response to RTK ligands” value [3] does the source give for CNC(=O)CN1CCC(Oc2cc3c(Nc4cccc(Cl)c4F)ncnc3cc2OC)CC1 [sapitinib] here?
Answer: Its value is “no significant effect”.

Question: Which “NO neuron induction / NO neuron proportions in response to RTK ligands” value [3] does the source give for PDGF here?
Answer: The value was “lower”.

Question: Which results are given for CNC[C@H](O)c1ccc(O)c(O)c1 [Epinephrine, epinephrine]?
Answer: electrical firing of ganglioid neurons [4]: increased electrical firing; neuronal cFOS expression [5]: induced neuronal cFOS expression

Question: For Cc1cccc(C#Cc2ccccc2)n1 [MPEP], which “CMMC intervals relative to the untreated condition” value (mouse colon) is on record?
Answer: The value was “promising effects on lowering CMMC intervals”.

Question: With Cc1cccc([C@H](C)c2cnc[nH]2)c1C [dexmedetomidine] as the compound, how does the “average duration of LCEs” value (mouse colon; [6]) read?
Answer: The value was “increasing trend”.

Question: What about the “total number of longitudinal contractile events (LCEs)” value (mouse colon; [6]) of the same compound?
Answer: The value was “decrease”.

Question: And the “effects on LCEs after the drug removal” value (mouse colon; Krebs washout)?
Answer: The value was “reversed”.

Question: And the “effects on LCEs with L-NAME co-treatment” value (mouse colon; L-NAME co-treatment)?
Answer: Its value is “blocked”.

Question: And the “effect on CMMC intervals with L-NAME” value (mouse colon; dexmedetomidine+L-NAME simultaneously)?
Answer: The value was “absent”.

Question: And the “CMMC intervals relative to the untreated condition” value (mouse colon)?
Answer: The value was “promising effects on lowering CMMC intervals”.

Question: And the CMMC intervals (mouse colon; sequential 6-min treatments, five sample pairs, 1 μM, drug alone)?
Answer: Its CMMC intervals is “decreased CMMC intervals in four out of five colon samples”.

Question: For O=C1CCc2ccc(OCCCCN3CCN(c4cccc(Cl)c4Cl)CC3)cc2N1 [aripiprazole], which “CMMC intervals relative to the untreated condition” value (mouse colon) is on record?
Answer: Its value is “promising effects on lowering CMMC intervals”.
